Experimental findings from ChEMBL document CHEMBL5154896, “Discovery of a Novel Class of d-Amino Acid Oxidase Inhibitors Using the Schrödinger Computational Platform” (J Med Chem, 2022) are described below.

pEC50, pIC50: −log10 of the molar value. Activity calls are given as the source filed them. The rule behind the calls is not given here.

The nature of data set [1]: Unbound drug concentration in C57Bl/6 mouse brain at 2 mg/kg, po or 0.5 mg/kg,iv by LC-MS-MS analysis. The data set is classed as ADME, organism-based. Conditions: C57Bl/6, mouse, brain.
Data set [2] concerns the target D-amino-acid oxidase (Homo sapiens, UniProt P14920). The experiment in a line: Inhibition of recombinant full length human DAO preincubated with compound for 20 mins measured after 4 hrs by Amplex red and horseradish peroxidase based fluorescence assay.
Data set [3] in a line: Apparent permeability across apical to basolateral membrane in MDCK-MDR1 cells by LC-MS/MS analysis. To be noted: dog.
The nature of data set [4]: Efflux ratio of apparent permeability across basolateral to apical side over apical to basolateral side in MDCK-MDR1 cells. To be noted: dog.
Data set [5] can be described thus: Volume of distribution at steady state in C57/BL6 mouse at 2 mg/kg, po or 0.5 mg/kg,iv by LC-MS-MS analysis. The class given is ADME, organism-based. Conditions: in vivo.
Data set [6] can be described thus: Half life in C57/BL6 mouse at 0.5 mg/kg,iv by LC-MS-MS analysis. The class given is ADME, organism-based. Conditions: in vivo.
Data set [7] can be described thus: Dose normalized AUC in C57/BL6 mouse at 2 mg/kg, po by LC-MS-MS analysis. The class given is ADME, organism-based. Conditions: in vivo.
Data set [8] in a line: Oral bioavailability in C57/BL6 mouse at 2 mg/kg by LC-MS-MS analysis. The data set is classed as ADME, organism-based. Conditions: in vivo.
A short description of data set [9]: Brain to plasma permeability coefficient, Kp in C57Bl/6 mouse 2 mg/kg, po or 0.5 mg/kg,iv by LC-MS-MS analysis. The data set is classed as ADME, organism-based. Conditions: C57Bl/6, mouse, brain and plasma, read-out: Kp.
Data set [10] can be described thus: Unbound drug concentration in C57Bl/6 mouse plasma at 2 mg/kg, po or 0.5 mg/kg,iv by LC-MS-MS analysis. The class given is ADME, organism-based. To be noted: C57Bl/6, mouse, plasma.
Data set [11] can be described thus: Unbound brain-to-plasma concentration ratio in C57Bl/6 mouse at 2 mg/kg, po or 0.5 mg/kg,iv by LC-MS-MS analysis. The class given is ADME, organism-based. To be noted: C57Bl/6, mouse, brain and plasma, read-out: K(p,uu,brain).
Data set [12] has as its system Mus musculus. Kind of data set: Effect of compound in C57BL/6 mouse catalepsy model assessed as no catalepsy at 150 mg/kg, po bid administered for every 4 hrs. The class given is functional, organism-based.
In data set [13] the target is D-amino-acid oxidase (Mus musculus, UniProt P18894). Kind of data set: Inhibition of full length mouse DAO transfected with CHO-K1 cells incubated for 30 mins by Amplex red and horseradish peroxidase based fluorescence assay. The data set is classed as cell-based.
D-amino-acid oxidase (Mus musculus, UniProt P18894), sequence (P18894 whole entry): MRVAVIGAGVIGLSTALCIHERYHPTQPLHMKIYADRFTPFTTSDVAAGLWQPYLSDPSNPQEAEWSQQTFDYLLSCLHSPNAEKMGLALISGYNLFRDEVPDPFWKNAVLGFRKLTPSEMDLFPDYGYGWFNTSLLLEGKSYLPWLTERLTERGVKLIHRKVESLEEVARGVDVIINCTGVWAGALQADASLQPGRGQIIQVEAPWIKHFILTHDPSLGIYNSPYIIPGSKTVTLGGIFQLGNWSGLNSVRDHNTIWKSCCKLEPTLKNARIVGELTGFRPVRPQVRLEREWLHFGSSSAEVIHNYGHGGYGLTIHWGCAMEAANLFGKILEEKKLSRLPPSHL
The target in data set [14] is T1, Prostaglandin G/H synthase 2 (Homo sapiens, UniProt P35354).
T1 sequence (P35354 whole entry): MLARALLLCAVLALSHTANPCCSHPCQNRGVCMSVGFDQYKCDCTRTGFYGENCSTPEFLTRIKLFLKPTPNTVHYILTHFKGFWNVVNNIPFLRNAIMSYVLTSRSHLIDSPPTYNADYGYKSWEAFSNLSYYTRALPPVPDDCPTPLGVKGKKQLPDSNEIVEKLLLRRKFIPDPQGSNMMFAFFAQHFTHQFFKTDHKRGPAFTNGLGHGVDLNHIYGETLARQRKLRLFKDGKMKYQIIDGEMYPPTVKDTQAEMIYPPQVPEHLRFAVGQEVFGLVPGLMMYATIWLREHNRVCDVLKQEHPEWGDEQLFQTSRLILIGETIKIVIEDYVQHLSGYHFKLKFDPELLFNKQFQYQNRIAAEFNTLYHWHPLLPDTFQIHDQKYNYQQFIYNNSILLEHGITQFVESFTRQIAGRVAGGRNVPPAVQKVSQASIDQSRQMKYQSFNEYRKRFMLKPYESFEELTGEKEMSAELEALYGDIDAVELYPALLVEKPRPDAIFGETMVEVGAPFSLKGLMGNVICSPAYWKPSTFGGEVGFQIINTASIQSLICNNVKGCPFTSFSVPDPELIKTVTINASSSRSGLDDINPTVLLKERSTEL
Kind of data set: Inhibition of human COX2.

For data set [15], the target named is T2, Polyunsaturated fatty acid 5-lipoxygenase (Homo sapiens, UniProt P09917).
T2 sequence (P09917 whole entry): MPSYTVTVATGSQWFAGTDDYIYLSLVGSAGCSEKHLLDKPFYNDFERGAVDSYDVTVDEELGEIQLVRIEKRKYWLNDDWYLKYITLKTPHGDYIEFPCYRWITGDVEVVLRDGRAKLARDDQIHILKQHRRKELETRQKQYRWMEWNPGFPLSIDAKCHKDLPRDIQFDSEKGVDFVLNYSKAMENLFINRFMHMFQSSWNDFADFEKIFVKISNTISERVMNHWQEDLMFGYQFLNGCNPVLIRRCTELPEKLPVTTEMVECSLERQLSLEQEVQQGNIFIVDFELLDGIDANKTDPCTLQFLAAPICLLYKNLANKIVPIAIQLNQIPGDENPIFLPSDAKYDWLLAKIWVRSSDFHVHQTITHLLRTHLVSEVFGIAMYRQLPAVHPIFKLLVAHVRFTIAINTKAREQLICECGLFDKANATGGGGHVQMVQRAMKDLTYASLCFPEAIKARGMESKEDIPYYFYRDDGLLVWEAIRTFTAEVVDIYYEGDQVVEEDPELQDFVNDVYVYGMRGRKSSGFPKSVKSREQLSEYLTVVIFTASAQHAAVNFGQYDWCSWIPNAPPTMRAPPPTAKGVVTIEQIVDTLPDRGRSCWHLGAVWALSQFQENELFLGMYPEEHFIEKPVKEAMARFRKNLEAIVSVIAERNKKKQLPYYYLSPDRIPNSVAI
Kind of data set: Inhibition of human recombinant 5-LOX incubated for 5 mins by fluorimetry.

The next data set deals with T3, Adenosine receptor A3 (Homo sapiens, UniProt P0DMS8).
T3 sequence (P0DMS8 whole entry): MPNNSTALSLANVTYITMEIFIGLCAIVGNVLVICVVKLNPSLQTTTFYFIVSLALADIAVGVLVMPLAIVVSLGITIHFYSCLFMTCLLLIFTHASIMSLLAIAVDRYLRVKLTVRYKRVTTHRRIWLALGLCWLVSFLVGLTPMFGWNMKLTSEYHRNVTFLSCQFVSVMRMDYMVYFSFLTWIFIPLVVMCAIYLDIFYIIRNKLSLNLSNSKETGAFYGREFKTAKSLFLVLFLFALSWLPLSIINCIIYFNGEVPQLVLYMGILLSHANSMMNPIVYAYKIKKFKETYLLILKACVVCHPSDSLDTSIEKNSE
The experiment in a line: Inhibition of recombinant human adenosine A3 GPCR incubated for 120 mins by scintillation counting based radiometry assay.

The target of a further data set is T4, Glucocorticoid receptor (Homo sapiens, UniProt P04150).
T4 sequence (P04150 whole entry): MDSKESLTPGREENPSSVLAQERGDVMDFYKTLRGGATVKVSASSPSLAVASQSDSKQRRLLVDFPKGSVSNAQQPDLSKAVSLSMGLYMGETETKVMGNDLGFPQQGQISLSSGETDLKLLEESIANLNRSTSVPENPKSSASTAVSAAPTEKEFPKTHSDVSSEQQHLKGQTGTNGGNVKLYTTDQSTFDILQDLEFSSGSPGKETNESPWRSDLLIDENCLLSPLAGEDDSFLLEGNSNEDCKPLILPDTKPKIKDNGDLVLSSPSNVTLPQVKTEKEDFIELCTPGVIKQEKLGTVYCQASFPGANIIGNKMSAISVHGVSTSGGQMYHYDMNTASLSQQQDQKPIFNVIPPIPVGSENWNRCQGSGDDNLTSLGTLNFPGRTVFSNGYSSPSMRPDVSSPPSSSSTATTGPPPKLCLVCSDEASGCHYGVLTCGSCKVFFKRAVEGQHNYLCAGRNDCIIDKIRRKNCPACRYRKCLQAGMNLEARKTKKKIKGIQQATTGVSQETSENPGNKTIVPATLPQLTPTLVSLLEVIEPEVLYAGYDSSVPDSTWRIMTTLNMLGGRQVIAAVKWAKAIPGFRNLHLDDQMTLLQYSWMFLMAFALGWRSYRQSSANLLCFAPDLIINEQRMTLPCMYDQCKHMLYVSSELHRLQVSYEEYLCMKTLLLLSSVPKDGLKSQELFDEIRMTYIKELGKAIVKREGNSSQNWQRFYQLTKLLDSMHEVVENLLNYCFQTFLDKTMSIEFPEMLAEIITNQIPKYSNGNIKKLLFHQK
The experiment in a line: Inhibition of GR human glucocorticoid NHR incubated for 360 mins by scintillation counting based radiometry assay.

For data set [16], the target named is T5, Peroxisome proliferator-activated receptor gamma (Homo sapiens, UniProt P37231).
T5 sequence (P37231 whole entry): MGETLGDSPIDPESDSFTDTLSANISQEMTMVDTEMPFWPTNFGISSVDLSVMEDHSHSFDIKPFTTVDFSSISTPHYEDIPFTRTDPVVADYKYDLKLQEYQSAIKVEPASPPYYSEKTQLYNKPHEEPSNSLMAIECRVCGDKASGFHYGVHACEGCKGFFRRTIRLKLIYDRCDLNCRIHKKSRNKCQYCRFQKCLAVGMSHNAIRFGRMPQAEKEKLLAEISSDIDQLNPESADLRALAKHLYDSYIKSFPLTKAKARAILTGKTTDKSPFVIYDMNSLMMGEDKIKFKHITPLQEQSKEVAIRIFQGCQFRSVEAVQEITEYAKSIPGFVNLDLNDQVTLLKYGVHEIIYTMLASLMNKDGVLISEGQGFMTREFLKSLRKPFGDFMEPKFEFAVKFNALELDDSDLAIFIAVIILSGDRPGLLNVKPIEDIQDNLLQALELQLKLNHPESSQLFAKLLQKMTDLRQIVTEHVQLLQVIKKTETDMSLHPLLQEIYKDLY
Kind of data set: Inhibition of recombinant human PPAR gamma NHR incubated for 120 mins by scintillation counting based radiometry assay.

Data set [17] in a line: In vivo receptor occupancy at DAO in C57BL/6 mouse cerebellum at 150 mg/kg, po measured after 4 hrs relative to control. The data set is classed as functional.
A short description of data set [18]: In vivo receptor occupancy at DAO in C57BL/6 mouse cerebellum at 150 mg/kg, po measured after 6 hrs relative to control. The class given is functional.
A short description of data set [19]: In vivo receptor occupancy at DAO in C57BL/6 mouse cerebellum at 150 mg/kg, po measured after 10 hrs relative to control. The class given is functional.
Data set [20] has as its system Mus musculus. Kind of data set: Effect of compound in C57BL/6 mouse catalepsy model assessed as decrease in plasma prolactin level at 150 mg/kg, po bid administered for every 4 hrs. The data set is classed as functional, organism-based.

D-amino-acid oxidase (Homo sapiens, UniProt P14920), sequence (P14920 whole entry): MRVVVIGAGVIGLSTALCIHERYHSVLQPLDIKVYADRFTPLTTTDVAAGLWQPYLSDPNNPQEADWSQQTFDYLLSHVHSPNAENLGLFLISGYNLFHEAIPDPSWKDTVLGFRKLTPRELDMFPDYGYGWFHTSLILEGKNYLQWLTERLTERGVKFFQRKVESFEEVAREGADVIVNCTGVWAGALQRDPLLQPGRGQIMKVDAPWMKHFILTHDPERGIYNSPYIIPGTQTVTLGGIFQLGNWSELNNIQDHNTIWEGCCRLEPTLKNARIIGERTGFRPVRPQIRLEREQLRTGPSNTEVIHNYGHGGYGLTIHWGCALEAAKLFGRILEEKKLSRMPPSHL

Take `O=c1[nH]c2ccsc2[nH]c1=O`: the unbound share (fraction unbound) in [1] stood at 0.26; in data set [10], 0.22. On D-amino-acid oxidase [2], the pIC50 is 6.92. Moreover, the Papp A→B in data set [3] came to 8.8 ×10⁻⁶ cm/s. Also, the efflux ratio in [4] was 0.8. In addition, the Vdss in data set [5] was 0.2 L/kg. This compound had a half-life in data set [6] of 1.2 h. Moreover, the AUC/dose in data set [7] worked out at 6266 ng·h/mL. Moreover, the bioavailability in data set [8] was found to be 34%. The Kp in data set [9] came to 0.004. In data set [11], the Kp uu was found to be 0.005.
For the compound `O=c1[nH]cc(CSc2ccc(C(F)(F)F)cc2)[nH]c1=O`, the result with Mus musculus [12] and with Mus musculus [20] was Active. The compound further showed a negative-log EC50 (pEC50) on D-amino-acid oxidase [13] of 6.29. In addition, the pIC50 (in data set [14]; in data set [15]; at Adenosine receptor A3; against Glucocorticoid receptor; in data set [16]) was under 5.00 in each case. Also, the results for the Activity in data set [17], in data set [18] and in data set [19] were 75%, 86% and 59%, respectively.
On to `O=c1[nH]cc(CSc2ccc(C(F)F)cc2)[nH]c1=O`, for which the negative-log EC50 (pEC50) at D-amino-acid oxidase [13] was 6.21. Moreover, the negative logarithm of the IC50 (pIC50) (in data set [14]; in [15]; on Adenosine receptor A3; on Glucocorticoid receptor; in data set [16]) was under 5.00 throughout.

The fraction unbound is free concentration divided by total concentration. High values mean much free substance, low ones little free substance. What is called pIC50 is the negative decadic logarithm of the IC50, by convention in mol/L. As a reminder, the Papp A→B is how fast a substance crosses the layer from the apical side. As usually defined, the efflux ratio is a quotient of directional permeabilities that is used to spot active efflux. Usually half-life stands for the time in which the quantity being followed falls by half. Usually bioavailability stands for the share of a dose that reaches the circulation, judged against a reference dose that is usually intravenous. Low readings indicate poor availability, high ones good availability. A word on the Kp: it is the ratio of the level in a tissue or fluid to that in plasma or blood. Broadly, the pEC50 is the negative decadic logarithm of the EC50, by convention in mol/L. A high value points to a low EC50.
